These are literature values, as cited in patent US20230111712A1, “STABLE REACTIVE COMPOSITIONS FOR BIOCONJUGATION, PROBES, AND PROTEIN LABELING” (ARIZONA BOARD OF REGENTS ON BEHALF OF THE UNIVERSITY OF …, priority 2020, published 2023).

SMILES strings stand for the structures.

A word on the pKa: it is the pH at which an ionisable group is half protonated.

For this data set the following is noted: reported value.

As for `CCCN` [propyl ammonium, propyl amine], the pKa is reported as 10.5.
